Experimental data published in patent US10208000B2, “Eis inhibitors” (priority 2015, dated 2019).

System: K204 Mtb
Type: cell-based, Mycobacterium tuberculosis

Structure (SMILES)	overcoming resistance to KAN in Mtb K204 (in words)
CC1=C(c2ccc(C)cc2)S(=O)(=O)N=C1NCCN1CCOCC1 [Compound 35e]	did not overcome resistance to KAN
CCN1CCN(CCNC2=NS(=O)(=O)C(c3ccc(OC)cc3)=C2C)CC1 [Compound 37d]	did not overcome resistance to KAN
CC1=C(c2ccc(F)cc2)S(=O)(=O)N=C1NCc1ccco1 [Compound 87b]	did not overcome resistance to KAN
CC1=C(c2ccc(F)cc2)S(=O)(=O)N=C1NCc1ccccc1 [Compound 89b]	did not overcome resistance to KAN
CC1=C(c2ccc(C)c(C)c2)S(=O)(=O)N=C1NCC(=O)NCc1ccc2c(c1)OCO2 [Compound 115i]	did not overcome resistance to KAN
CCCNC1=NS(=O)(=O)C(c2ccc(F)cc2)=C1C [Compound 139b]	did not overcome resistance to KAN
CCCNC1=NS(=O)(=O)C(c2ccc(C)cc2)=C1C [Compound 139e]	did not overcome resistance to KAN
CCCNC1=NS(=O)(=O)C(c2ccc(C)c(C)c2)=C1C [Compound 139i]	did not overcome resistance to KAN
